These are literature values, as cited in US20100028425A1, “PHARMACEUTICAL COMPOSITION OF ATOVAQUONE” (GLENMARK GENERICS LTD., priority 2008, published 2010).

Take `O=C1C(O)=C([C@H]2CC[C@H](c3ccc(Cl)cc3)CC2)C(=O)c2ccccc21` [Atovaquone, trans 2-[4-(4-chlorophenyl)cyclohexyl]-3-hydroxy-1,4-naphthalenedione]: the solubility in water entry is recorded as “practically insoluble”.
